The values that follow come from PubChem BioAssay AID1645864 (Buhrlage Lab, Dana-Farber Cancer Institute and Novartis …, 2021).

In general, IC50 refers to the concentration that inhibits the measured activity by half. A word on the pIC50: it is −log10 of the IC50, conventionally taken in molar units.

pIC50: −log10 of the molar value. The source made the active and inactive calls.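 How the source made its calls: active means maximal inhibition of USP17 at or above 30% in the confirmation dose-response, a value not among the printed readouts; inactive means the rest.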

The target of this assay is Ubiquitin carboxyl-terminal hydrolase 17-like protein 5 (Homo sapiens) (UniProt A8MUK1). As to the kind of experiment: ubiquitin-specific protease 17 DUB inhibitors, concentration-effect assay, cell-free, verification of initial screening actives (AID 1645864). The conditions noted are these: purified USP17, ubiquitin-rhodamine cleavage fluorescence, 3 h.
Ubiquitin carboxyl-terminal hydrolase 17-like protein 5 (Homo sapiens), sequence (A8MUK1 whole entry, looked up): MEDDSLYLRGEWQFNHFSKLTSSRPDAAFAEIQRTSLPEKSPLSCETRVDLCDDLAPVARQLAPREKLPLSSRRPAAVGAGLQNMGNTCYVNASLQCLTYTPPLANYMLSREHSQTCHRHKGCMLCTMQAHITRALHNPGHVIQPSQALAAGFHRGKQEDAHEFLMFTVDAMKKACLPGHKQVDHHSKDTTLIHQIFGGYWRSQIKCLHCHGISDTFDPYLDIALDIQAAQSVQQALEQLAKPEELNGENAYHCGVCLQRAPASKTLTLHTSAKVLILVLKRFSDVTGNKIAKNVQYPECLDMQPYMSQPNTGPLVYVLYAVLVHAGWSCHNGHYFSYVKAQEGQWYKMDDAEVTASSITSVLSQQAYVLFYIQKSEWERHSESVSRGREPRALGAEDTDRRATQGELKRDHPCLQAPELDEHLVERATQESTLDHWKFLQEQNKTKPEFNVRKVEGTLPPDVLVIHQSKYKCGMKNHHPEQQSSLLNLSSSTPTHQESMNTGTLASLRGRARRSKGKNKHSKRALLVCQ
As for `C=C(NC(=O)C(=C)NC(=O)c1csc(C2=N[C@@H]3c4csc(n4)[C@H]4NC(=O)c5csc(n5)[C@H]([C@](C)(O)[C@@H](C)O)NC(=O)C5CSC(=N5)/C(=C/C)NC(=O)C([C@@H](C)O)NC(=O)c5csc(n5)[C@]3(CC2)NC(=O)[C@H](C)NC(=O)C(=C)NC(=O)[C@H](C)NC(=O)C([C@@H](C)CC)NC2C=Cc3c(C(C)O)cc(nc3[C@H]2O)C(=O)OC4C)n1)C(N)=O` (stereo partly specified), the IC50 is > 50 µM (inactive). Turning to `Cc1ccn(-c2ccc(NC(=O)C3CCCCC3)cc2)n1`, the pIC50 was 4.70. Take `O=C(CC(C(=O)Nc1ccc2c(c1)OCO2)C(=O)c1ccccc1)Nc1ccc(Cl)cc1F` (stereo unspecified): the pIC50 is 4.94. Turning to `CCOC(=O)c1cccc(NC(=O)Nc2cccn3nc(C)nc23)c1`, the IC50 is > 50 µM (inactive).

`Cc1ccc(NC(=O)c2sc(=S)n(CCc3ccccc3)c2N)cc1`: the negative-log IC50 (pIC50) is 5.62. On the same count and under the same terms, next, `O=C(CCn1c(=O)c2sccc2n(CC(=O)OCc2ccccc2)c1=O)NCc1ccc2c(c1)OCO2`: 4.85.

Consider `CCc1ccc(NC(=O)COC(=O)c2n[nH]c3ccccc23)cc1`, for which the pIC50 is 5.47.

With `COc1ccc(CC(=O)Nc2ccc3nc(N4CCOCC4)cc(C)c3c2)cc1`, the pIC50 is 4.62.

For `Cc1ccccc1NC(=O)c1ccc(N2CCCCC2)nn1`, the IC50 was > 50 µM (inactive).

For `CNC(=O)c1c2n(c3ncccc13)CCN(S(=O)(=O)c1ccc(-c3ccccc3)cc1)C2`, the pIC50 was 4.82. For the compound `O=C(COc1ccc(S(=O)(=O)N2CCOCC2)cc1)N1CCC(Cc2ccccc2)CC1`, the IC50 is > 50 µM (inactive). Consider `O=C(Nc1cccc(S(=O)(=O)N2CCCC2)c1)c1ccc2c(=O)n3c(nc2c1)CCCCC3`, for which the IC50 is > 50 µM (inactive). Regarding `c1csc(-c2nc(Nc3ccc4c(c3)CCC4)c3ccccc3n2)c1`, the pIC50 was 5.38. As to `Cc1ccc(NC(=O)c2cnc3c(c2)c(=O)n(C)c(=O)n3C)cc1`, the negative-log IC50 (pIC50) is 5.60. In the case of `Cc1ccc(C)c(Nc2cc(C)nc3nc(-c4ccco4)nn23)c1`, the IC50 was > 50 µM (inactive).

In the case of `O=C(Nc1ccc(Oc2cccc3cccnc23)cc1)c1cccs1`, the IC50 is > 50 µM (inactive). With `CC1CCCCN1c1nc(F)c2c(c1F)S(=O)(=O)CCN2Cc1ccccc1` (stereo unspecified), the IC50 was > 50 µM (inactive). Turning to `Cc1ccc(-c2cn(CC(=O)N3CCN(c4ccccn4)CC3)c(=O)o2)cc1`, the pIC50 is 4.89. For `Cc1ccc(NC(=O)C2CCN(c3cncnc3N3CCCC3)CC2)cc1`, the IC50 was > 50 µM (inactive).

For the compound `O=C1CC(NS(=O)(=O)c2ccc3ccccc3c2)CN1c1cccc(F)c1` (stereo unspecified), the negative-log IC50 (pIC50) was 4.32. Regarding `Cc1cc(C(=O)N2CCOC3(CC=CCN(CCc4ccccc4)C3=O)C2)n2nccc2n1` (stereo unspecified), the IC50 was > 50 µM (inactive).

For `COc1ccc(NC(=O)c2nnc(C(=O)NCCN3CCCCCC3)s2)cc1`, the pIC50 was 5.52. Take `COc1cnc(-c2ccccn2)nc1Sc1ccc(C)cc1`: the IC50 was > 50 µM (inactive). As for `CCCCNC(=O)C1Sc2nnc(-c3ccccc3)n2NC1c1ccccc1` (stereo unspecified), the pIC50 was 4.63. For `CCOc1ccc(-c2ccc3nnc(SCC(=O)Nc4cccc(C(C)=O)c4)n3n2)cc1`, the pIC50 is 5.37. For the compound `CCN1CCCC1CN(Cc1cc2cc(OC)ccc2[nH]c1=O)C(=O)NCc1ccccc1` (stereo unspecified), the IC50 was > 50 µM (inactive). On to `COc1ccccc1Nc1ncc(C(=O)NCCc2ccc(Cl)cc2)c2ccccc12`, for which the pIC50 is 5.38. The same measure, in the same setting: next, `CCC[C@H]1O[C@@H]2CC(=O)O[C@@H]2C2=C1C(=O)c1c(O)cccc1C2=O`: 5.97.

For `CCCCN(C)C(=O)c1cc2c(=O)n3cccc(C)c3nc2n1Cc1ccccc1`, the pIC50 was 4.40. Same read-out and setting: next, `COc1ccc2nc(SCC(=O)Nc3ccc(NC(C)=O)cc3)c(C)cc2c1`: 5.19. For `O=C(CSc1cn(Cc2ccccc2)c2ccccc12)Nc1ccc2c(c1)OCCO2`, the IC50 was > 50 µM (inactive). `Cc1ccc(CNC(=O)Cn2cnc3c(cnn3-c3cccc(Cl)c3)c2=O)cc1`: the pIC50 was 5.83. Still for that read-out and setting: the result for `O=C(Nc1cccc(C(F)(F)F)c1)c1cc2c(s1)-c1ccccc1OC2` reads 5.67. The same measure, in the same setting: next, `COc1ccc(-n2ccn3c(CCC(=O)NCc4ccc(F)cc4)nnc3c2=O)cc1`: 4.48; `COc1cccc(N2CCN(C(=O)Nc3ccc4c(c3)NC(=O)CO4)CC2)c1`: 4.57. `CC(=O)Nc1ccc(Cc2nc(-c3ccc4c(c3)nc(C)c(=O)n4C3CCCC3)no2)cc1`: the IC50 is > 50 µM (inactive).

Take `CCn1c(SCc2cccc(C)c2)nnc1-c1cnccn1`: the IC50 was > 50 µM (inactive). `Cc1cc(=O)n(CC(=O)Nc2ccccc2F)c(Nc2ccc(F)cc2)n1`: the pIC50 is 4.89. On the same count and under the same terms, the result for `CCCn1cc(C(=O)N2CCC3(CC2)CC2(CO3)Nc3ccccc3-n3cccc32)c(C)n1` (stereo unspecified) reads 4.56. Turning to `Cc1c(C(=O)Nc2ccc(-c3nnc4n3CCCCC4)cc2)oc2c1ccc1ccccc12`, the IC50 is > 50 µM (inactive). As for `COc1cc(NC(=O)COC(=O)Cn2cnc3ccccc32)cc(OC)c1`, the IC50 was > 50 µM (inactive). With `COc1ccc(CNC(=O)c2ccccc2N2C(=O)N3CCc4c([nH]c5ccccc45)[C@@]3(C)C2=O)cc1`, the pIC50 was 4.53.

Turning to `N#C/C(=C\c1ccc(-c2cc(Cl)ccc2Cl)o1)c1nnc2n1CCCCC2`, the IC50 was > 50 µM (inactive). As to `CCOC(=O)c1cnn(-c2ccc(C(=O)Nc3ccc(C)c(Cl)c3)cc2)c1N`, the pIC50 is 5.63. The same measure, in the same setting: the result for `Cc1nn(CC(=O)Nc2ccc(Br)c3cccnc23)c(=O)c2ccccc12` reads 4.90; that for `N#Cc1c(Cl)cccc1Oc1ccc(S(=O)(=O)N2CCC(O)CC2)cc1`, 4.56. Consider `O=C(COc1nc2ccccc2nc1N1CCOCC1)NC(c1ccccc1)c1ccccc1`, for which the IC50 is > 50 µM (inactive). Take `Cc1nn(Cc2ccccc2)c(C)c1C(=O)NC1CCCc2ccccc21` (stereo unspecified): the IC50 is > 50 µM (inactive).

As to `COc1ccc(-c2cc(-c3ccc(O)cc3)nc(N)c2C#N)cc1OC`, the IC50 was > 50 µM (inactive). Regarding `O=C(Cn1cncc(C(=O)NC2CCCC2)c1=O)Nc1cccc(F)c1`, the pIC50 was 4.72. On to `Cc1ccc(-n2cc(C(=O)NCc3cccnc3)nn2)cc1C`, for which the negative-log IC50 (pIC50) is 4.65. As to `COC(=O)c1ccc(Cn2cnc3ccc(F)cc3c2=O)o1`, the IC50 was > 50 µM (inactive).

As for `COc1cc(/C=C/C(=O)OCC(=O)Nc2ccc([N+](=O)[O-])cc2OC)ccc1O`, the pIC50 is 4.70.

In the case of `COc1ccc(-n2c(SCC(=O)c3ccc(F)cc3)nnc2-c2cccnc2)cc1`, the pIC50 is 4.62. As for `CC1CCN(c2nnc(-c3nc(C4CC4)no3)c3ccccc23)CC1`, the IC50 is > 50 µM (inactive).

With `CN(CCCNC(=O)c1cccc2c1SCCC2=O)c1ccccc1`, the IC50 is > 50 µM (inactive). Take `Cn1c2ccccc2c2ncn(Cc3ccc(F)cc3)c(=O)c21`: the pIC50 is 4.36.

Take `NC(=O)c1nnn(-c2ccc(NC(=O)c3ccc(F)c(F)c3)cc2)n1`: the negative-log IC50 (pIC50) is 4.98. Same read-out and setting: the result for `Cc1cc(C)c2cc3c(nc2c1)OC(=O)N(Cc1ccco1)C3` reads 4.51; that for `Cc1cccc(NC(=O)CSc2ccc(-n3cnc(-c4ccccc4)c3)nn2)c1`, 5.21; that for `COc1cccc(NC(=O)CSc2nnc(-c3cc4cccc(OC)c4o3)n2C)c1`, 4.92. On to `Cc1ccc(NC(=O)c2ccc3c(c2)N(S(C)(=O)=O)CC3)cc1`, for which the pIC50 was 4.42. The same measure, in the same setting: the result for `COc1ccc(Cn2c(=O)[nH]c3cc(C(=O)NCCCN4CCN(c5cccc(Cl)c5)CC4)ccc3c2=O)cc1` reads 5.52.

For `COCCN(C1CCN(CCc2ccc(Cl)cc2)CC1)S(=O)(=O)c1cccc2cccnc12`, the IC50 is > 50 µM (inactive). Still for that read-out and setting: next, `COc1ccc(CCNC(=O)c2cc3ccccc3s2)cc1OC`: > 50 µM (inactive).

Consider `O=C(COC(=O)c1cc(Cl)ccc1O)Nc1ccc2c(c1)OCCO2`, for which the pIC50 is 4.53. On the same count and under the same terms, next, `Oc1sc(C=Nc2cc(Cl)ccc2Cl)c2ccccc12`: 5.84; `COCCCNC(=O)c1ccc(Cn2c(=O)c3ccccc3n(CC(=O)NC3CCCCC3)c2=O)cc1`: 4.51.

Consider `CC1CCCN(CCCNC(=O)c2ccc(N3CCc4ccccc43)s2)C1` (stereo unspecified), for which the IC50 was > 50 µM (inactive). Consider `COc1ccc(S(=O)(=O)N2CCN3Cc4ccccc4N(C)CC3C2)cc1` (stereo unspecified), for which the IC50 is > 50 µM (inactive).

Regarding `Cn1c(=O)sc2cc(NC(=O)c3ccc(Br)cc3)ccc21`, the pIC50 is 5.74. For `C/C1=C\CCC(C)C(O)CC(O)C(C)C(O)CCC(C)C(O)CC2(O)OC(CC(OC(=O)CC(=O)O)CC(O)CC(O)CC(O)C(C)C(O)/C=C/C(C)C(C(C)CCCCCCCCN=C(N)N)OC1=O)CC(O)C2O` (stereo unspecified), the IC50 is > 50 µM (inactive). Consider `COc1ccc(OC)c(-c2c(C#N)c(C)nc3c2N2CCC3CC2)c1`, for which the negative-log IC50 (pIC50) was 5.16. On the same count and under the same terms, the result for `Cc1ccc(CN2CCCn3nc(C(=O)NCc4ccccc4C)cc3C2=O)cc1` reads 4.40; that for `CS(=O)(=O)c1ccc(NC(=O)C2CN(c3nc4c(F)cccc4s3)C2)cc1`, 4.44; that for `CCCn1c(=O)c(-c2ccc(C(=O)NCc3ccc(OC)cc3)cc2)nc2cccnc21`, 5.75. The same measure, in the same setting: next, `O=C(NCc1ccc(-c2nc3cnccc3o2)cc1)c1ccccc1F`: 4.73; `O=C(Nc1ccccc1-c1nc2ccccc2[nH]1)c1sc2ccccc2c1Cl`: 5.75. `O=C(Nc1cc(Cl)ccc1-n1cncn1)c1ccc(S(=O)(=O)N2CCCC2)cc1`: the IC50 is > 50 µM (inactive).

On to `Cc1ccc(NC(=O)c2ccc(Nc3nnc(C)c4ccccc34)cc2)cc1`, for which the negative logarithm of the IC50 (pIC50) was 4.42.

Consider `O=C(/C=C/c1ccc2c(c1)OCO2)Nc1nc2c(s1)COCC2`, for which the negative-log IC50 (pIC50) was 4.76. In the case of `CC1OC2CC(O)C1(O)C1=C2C(O)=C(C(N)=O)C(=N)C1=O` (stereo unspecified), the pIC50 is 5.69.

As for `COc1cc(OC)c2c(c1)C(=O)C1=C(COC(C)(O)C1)C2=O` (stereo unspecified), the negative logarithm of the IC50 (pIC50) is 5.46. On to `CCCCc1nc2sc3c(NCCN4CCOCC4)ncnc3c2c2c1CCC2`, for which the IC50 is > 50 µM (inactive). For `COc1c2c(cc3cc(O)c4c(=O)cc(C)oc4c13)CCC2=O`, the pIC50 is 4.47. Turning to `COc1cc(NC(=O)c2cc(-c3ccncc3)n(-c3ccc(F)cc3)n2)cc(OC)c1`, the IC50 is > 50 µM (inactive).
